Results published in patent US7091202B2, “4-arylspirocycloalkyl-2-aminopyrimidine carboxamide KCNQ potassium channel modulators” (Bristol-Myers Squibb Company, priority 2004, dated 2006).

The molecules below were run against T1, hQ23 (HEK-293 cell line stably transfected with one of the members of the KCNQ family) (Homo sapiens, UniProt O43525+O43526) (assay: Thallium flux assay for KCNQ channel blockers (FLIPR, BTC dye)). Details: Table 2; thallium flux, HEK-293.
T1 construct: expressed in transfected cells; host or cells: HEK-293, stably transfected
T1 sequence (O43526 whole entry): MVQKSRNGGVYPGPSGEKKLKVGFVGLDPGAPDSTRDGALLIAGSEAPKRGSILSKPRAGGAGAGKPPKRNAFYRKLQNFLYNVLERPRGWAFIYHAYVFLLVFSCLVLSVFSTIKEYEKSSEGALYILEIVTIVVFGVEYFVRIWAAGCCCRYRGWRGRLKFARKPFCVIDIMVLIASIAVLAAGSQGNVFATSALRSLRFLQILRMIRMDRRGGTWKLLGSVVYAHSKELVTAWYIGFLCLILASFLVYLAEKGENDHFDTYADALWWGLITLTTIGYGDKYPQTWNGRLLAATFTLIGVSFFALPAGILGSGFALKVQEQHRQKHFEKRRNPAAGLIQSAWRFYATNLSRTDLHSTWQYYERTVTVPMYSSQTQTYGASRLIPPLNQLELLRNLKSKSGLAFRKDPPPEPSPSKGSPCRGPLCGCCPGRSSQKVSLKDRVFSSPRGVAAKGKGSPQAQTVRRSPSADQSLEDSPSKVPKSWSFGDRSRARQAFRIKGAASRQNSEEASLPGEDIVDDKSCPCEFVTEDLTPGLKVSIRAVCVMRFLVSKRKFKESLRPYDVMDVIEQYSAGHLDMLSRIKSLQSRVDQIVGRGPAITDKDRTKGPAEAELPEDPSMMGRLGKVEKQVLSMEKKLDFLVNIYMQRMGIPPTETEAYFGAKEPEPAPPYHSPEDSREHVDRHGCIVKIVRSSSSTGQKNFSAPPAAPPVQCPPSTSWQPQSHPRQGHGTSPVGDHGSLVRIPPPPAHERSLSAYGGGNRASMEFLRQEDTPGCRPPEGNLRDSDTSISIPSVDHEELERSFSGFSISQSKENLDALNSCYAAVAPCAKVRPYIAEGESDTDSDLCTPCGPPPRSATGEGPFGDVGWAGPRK
T1 sequence (O43525 whole entry): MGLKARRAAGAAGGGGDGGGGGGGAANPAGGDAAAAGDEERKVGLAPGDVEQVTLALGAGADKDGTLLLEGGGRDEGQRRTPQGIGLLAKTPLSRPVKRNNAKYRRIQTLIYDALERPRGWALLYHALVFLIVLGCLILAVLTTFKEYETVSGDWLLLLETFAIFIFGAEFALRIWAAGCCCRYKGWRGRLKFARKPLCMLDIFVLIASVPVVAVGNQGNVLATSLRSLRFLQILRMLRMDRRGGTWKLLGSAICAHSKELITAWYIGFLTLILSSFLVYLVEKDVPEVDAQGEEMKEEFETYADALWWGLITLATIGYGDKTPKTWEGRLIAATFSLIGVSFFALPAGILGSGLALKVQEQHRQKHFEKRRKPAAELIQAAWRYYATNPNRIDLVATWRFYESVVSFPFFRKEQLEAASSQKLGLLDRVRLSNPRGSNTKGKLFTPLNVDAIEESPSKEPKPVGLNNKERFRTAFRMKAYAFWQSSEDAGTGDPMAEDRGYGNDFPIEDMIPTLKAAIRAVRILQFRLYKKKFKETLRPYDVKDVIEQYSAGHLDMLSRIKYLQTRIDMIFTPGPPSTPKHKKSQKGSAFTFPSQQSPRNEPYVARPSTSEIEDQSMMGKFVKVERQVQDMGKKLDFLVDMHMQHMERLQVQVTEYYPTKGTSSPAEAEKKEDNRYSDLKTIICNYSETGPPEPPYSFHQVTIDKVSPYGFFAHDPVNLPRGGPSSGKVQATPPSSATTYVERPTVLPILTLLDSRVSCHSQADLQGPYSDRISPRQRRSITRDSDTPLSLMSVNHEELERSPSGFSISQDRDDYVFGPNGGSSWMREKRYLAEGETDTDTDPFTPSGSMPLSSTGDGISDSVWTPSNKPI
Format: cell-based
Experimental: Thallium Flux Assay for KCNQ channel blockers. Approximately 20,000 cells/well of an HEK-293 cell line stably transfected with one of the members of the KCNQ family were plated into clear-bottom, black-walled, poly-D-lysine coated, 384 well assay plates in 20 μl/well of low chloride plating medium. Low chloride plating medium was composed of the following: sodium gluconate, 109 mM; potassium gluconate, 5.4 mM; hemi-calcium gluconate, 3.6 mM; magnesium sulfate, 0.8 mM; sodium bicarbonate, 26.2 mM; sodium phosphate monobasic, 1.2 mM; glutamine, 2 mM; glucose, 5 mM; HEPES (pH 7.3) 10 mM, 10× concentration of vitamins (Gibco/LifeTechnologies catalog #11120-052) and 1× concentration of amino acids (Gibco/LifeTechnologies catalog #11130-051).
Following overnight incubation in a 5% CO2 incubator at 37° C., the cells in the plates were loaded with 20 μl/well of a dye loading solution containing the acetomethoxy ester of the thallium-sensitive fluorescent dye BTC, BTC-AM (2 μM) and pluronic acid (0.02% w/v) in chloride free assay buffer. Chloride free assay buffer was composed of the following: sodium gluconate, 140 mM; potassium gluconate, 2.5 mM; hemi-calcium gluconate, 6 mM; hemi-magnesium gluconate, 2 mM; glucose, 5 mM; HEPES (pH 7.3), 10 mM.
Following incubation in the dye loading solution for from 45–90 min at room temperature, the dye loading solution was removed by aspiration and replaced with 40 μl/well of chloride free assay buffer.
Prior to addition to cell plates, test compound and standard compounds were dissolved in DMSO to 3 mM concentration. Compounds were then diluted from the 3 mM stock to 100-fold over the final assay concentration in DMSO. Finally, compounds in DMSO were diluted from 100-fold over the final assay concentration to 5-fold over the final assay concentration in chloride free assay buffer.
Ten μl/well of compounds at 5-fold over the final assay concentration were then added to the cell plates. This represents a 1:5 dilution, yielding the final test concentration. The wells used for test compounds were A1–P20. Wells A21–P22 contained a standard ‘blocker’ and a fully efficacious concentration (positive control). Wells A23–P24 contained chloride free assay buffer containing 1% DMSO (negative control).
Following addition of test compounds, the plates were loaded onto the Molecular Devices FLIPR. The 488 nm line of the argon laser was used to excite the BTC and the emission filter was a 540(+/−30) nm. Images were collected at 1 Hz. Ten seconds of baseline were collected and then the FLIPR was used to add 13 μl/well of a stimulus buffer composed of Tl2SO4, 25 mM; sodium gluconate, 30 mM; potassium sulfate, 50 mM; hemi-calcium gluconate, 6 mM; hemi-magnesium gluconate, 2 mM; glucose, 5 mM; HEPES (pH 7.3), 10 mM in chloride free assay buffer. Images were collected for an additional 60 seconds.
For data analysis, the amplitude of the average of the negative controls was subtracted from all wells. The amplitudes of the test compounds were then compared to the value of four standard deviations of the negative control wells. The lowest concentration of a test compound sufficient to generate a signal amplitude greater than or equal to four standard deviations from the amplitude of the negative controls was defined as the minimal active concentration.
For generating IC50 values, compounds were serially diluted in 1:3 volume increments to produce a 10 point concentration series. IC50 values were calculated by fitting the resulting amplitudes to a single-site logistic equation. IC50 was defined as the concentration of test compound required to yield 50% of the response of the positive control.

With CN1CCN(c2ncc(C(=O)NCc3cc(F)cc(C(F)(F)F)c3)c(C3(c4ccccc4)CC3)n2)CC1 [Example 46, 5-pyrimidinecarboxamide, N-[[3-fluoro-5-(trifluoromethyl)phenyl]methyl]-2-(4-methyl-1-piperazinyl)-4-(1-phenylcyclopropyl)-] as the molecule, how does the EC50 read?
Its EC50 is 384 nM.

With CCN(Cc1ccccc1)C(=O)c1cnc(N2CCCC(C)C2)nc1C1(c2ccccc2)CC1 (stereo not drawn) [Example 30, 5-pyrimidinecarboxamide, N-ethyl-2-(3-methyl-1-piperidinyl)-4-(1-phenylcyclopropyl)-N-(phenylmethyl)-] as the molecule, how does the EC50 read?
Its EC50 is 634 nM.

Which EC50 does the source give for CCN(Cc1ccccc1)C(=O)c1cnc(NC2CCC(C)CC2)nc1C1(c2ccccc2)CC1 (stereo not drawn) [Example 29, 5-pyrimidinecarboxamide, N-ethyl-2-[(4-methylcyclohexyl)amino]-4-(1-phenylcyclopropyl)-N-(phenylmethyl)-] here?
The EC50 was 607 nM.

Same assay, conditions: Table 3; thallium flux, HEK-293

How did the EC50 turn out when CC1CCN(c2ncc(C(=O)NCc3cc(F)cc(C(F)(F)F)c3)c(C3(c4ccc(Cl)cc4)CCC3)n2)CC1 [Example 67, 5-pyrimidinecarboxamide, 4-[1-(4-chlorophenyl)cyclobutyl]-N-[[3-fluoro-5-(trifluoromethyl)phenyl]methyl]-2-(4-methyl-1-piperidinyl)-] was run?
The EC50 was 10 nM.

Same assay, conditions: hQ23 cells, thallium flux

How did the EC50 turn out when CC1CCN(c2ncc(C(=O)NCc3ccc4c(c3)OCO4)c(C3(c4ccc(Cl)cc4)CCCC3)n2)CC1 [Example 154, 5-pyrimidinecarboxamide, N-(1,3-benzodioxol-5-ylmethyl)-4-[1-(4-chlorophenyl)cyclopentyl]-2-(4-methyl-1-piperidinyl)-] was run?
The EC50 was 10 nM.

With CC1CCC(Nc2ncc(C(=O)NCc3ccc(C(F)(F)F)cc3)c(C3(c4ccccc4)CCCC3)n2)CC1 (stereo not drawn) [Example 137, 5-pyrimidinecarboxamide, 2-[(4-methylcyclohexyl)amino]-4-(1-phenylcyclopentyl)-N-[[4-(trifluoromethyl)phenyl]methyl]-] as the molecule, how does the EC50 read?
The EC50 was 964 nM.

How did the EC50 turn out when CN(C(=O)c1cnc(NC2CCCC2)nc1C1(c2ccc(F)cc2)CCCC1)C1CCCCC1 [Example 209, 5-pyrimidinecarboxamide, N-cyclohexyl-2-(cyclopentylamino)-4-[1-(4-fluorophenyl)cyclopentyl]-N-methyl-] was run?
The EC50 was 702 nM.

Which EC50 does the source give for CC1CCN(c2ncc(C(=O)N(C)C3CCCCC3)c(C3(c4ccc(F)cc4)CCCC3)n2)CC1 [Example 208, 5-pyrimidinecarboxamide, N-cyclohexyl-4-[1-(4-fluorophenyl)cyclopentyl]-N-methyl-2-(4-methyl-1-piperidinyl)-] here?
The EC50 was 558 nM.

How did the EC50 turn out when CN(CCc1ccccc1)C(=O)c1cnc(NC2CC2)nc1C1(c2ccc(Cl)cc2)CCCC1 [Example 145, 5-pyrimidinecarboxamide, 4-[1-(4-chlorophenyl)cyclopentyl]-2-(cyclopropylamino)-N-methyl-N-(2-phenylethyl)-] was run?
The EC50 was 895 nM.

With CC1CCCN(c2ncc(C(=O)NCc3ccc(F)cc3F)c(C3(c4ccc(Cl)cc4)CCCC3)n2)C1 (stereo not drawn) [Example 187, 5-pyrimidinecarboxamide, 4-[1-(4-chlorophenyl)cyclopentyl]-N-[(2,4-difluorophenyl)methyl]-2-(3-methyl-1-piperidinyl)-] as the molecule, how does the EC50 read?
Its EC50 is 95 nM.

With CC1CCCN(c2ncc(C(=O)NCc3cccc4ccccc34)c(C3(c4ccccc4)CCCC3)n2)C1 (stereo not drawn) [Example 103, 5-pyrimidinecarboxamide, 2-(3-methyl-1-piperidinyl)-N-(1-naphthalenylmethyl)-4-(1-phenylcyclopentyl)-] as the molecule, how does the EC50 read?
Its EC50 is 66 nM.

Which EC50 does the source give for CC1CCCN(C(=O)c2cnc(NC3CC3)nc2C2(c3ccc(Cl)cc3)CCCC2)C1 (stereo not drawn) [Example 144, piperidine, 1-[[4-[1-(4-chlorophenyl)cyclopentyl]-2-(cyclopropylamino)-5-pyrimidinyl]carbonyl]-3-methyl-] here?
The EC50 was 884 nM.

With O=C(NCc1ccc(Cl)cc1Cl)c1cnc(N2CCCC2)nc1C1(c2ccc(Cl)cc2)CCCC1 [Example 178, 5-pyrimidinecarboxamide, 4-[1-(4-chlorophenyl)cyclopentyl]-N-[(2,4-dichlorophenyl)methyl]-2-(1-pyrrolidinyl)-] as the molecule, how does the EC50 read?
The EC50 was 74 nM.

Which EC50 does the source give for CCN(C)C(=O)c1cnc(N2CCCC(C)C2)nc1C1(c2ccccc2)CCCC1 (stereo not drawn) [Example 83, 5-pyrimidinecarboxamide, N-ethyl-N-methyl-2-(3-methyl-1-piperidinyl)-4-(1-phenylcyclopentyl)-] here?
Its EC50 is 605 nM.

CC1CCN(c2ncc(C(=O)N(C)CCc3ccccc3)c(C3(c4ccc(F)cc4)CCCC3)n2)CC1 [Example 222, 5-pyrimidinecarboxamide, 4-[1-(4-fluorophenyl)cyclopentyl]-N-methyl-2-(4-methyl-1-piperidinyl)-N-(2-phenylethyl)-] was tested. Which EC50 did it give?
The EC50 was 273 nM.

With CCC(C)Nc1ncc(C(=O)N(C)CCc2ccccc2)c(C2(c3ccc(F)cc3)CCCC2)n1 (stereo not drawn) [Example 223, 5-pyrimidinecarboxamide, 4-[1-(4-fluorophenyl)cyclopentyl]-N-methyl-2-[(1-methylpropyl)amino]-N-(2-phenylethyl)-] as the molecule, how does the EC50 read?
Its EC50 is 675 nM.

How did the EC50 turn out when CC1CCCN(c2ncc(C(=O)NC(C)c3ccc(F)cc3)c(C3(c4ccc(Cl)cc4)CCCC3)n2)C1 (stereo not drawn) [Example 198, 5-pyrimidinecarboxamide, 4-[1-(4-chlorophenyl)cyclopentyl]-N-[1-(4-fluorophenyl)ethyl]-2-(3-methyl-1-piperidinyl)-] was run?
The EC50 was 124 nM.

For CN1CCN(c2ncc(C(=O)N(C)Cc3ccccc3)c(C3(c4ccc(Cl)cc4)CCCC3)n2)CC1 [Example 139, 5-pyrimidinecarboxamide, 4-[1-(4-chlorophenyl)cyclopentyl]-N-methyl-2-(4-methyl-1-piperazinyl)-N-(phenylmethyl)-], which EC50 is on record?
Its EC50 is 70 nM.

Which EC50 does the source give for CN1CCC(N(C)c2ncc(C(=O)NCc3ccc(C(F)(F)F)cc3)c(C3(c4ccc(Cl)cc4)CCCC3)n2)CC1 [Example 204, 5-pyrimidinecarboxamide, 4-[1-(4-chlorophenyl)cyclopentyl]-2-[methyl(1-methyl-4-piperidinyl)amino]-N-[[4-(trifluoromethyl)phenyl]methyl]-] here?
The EC50 was 400 nM.

For O=C(NCc1cc(F)cc(C(F)(F)F)c1)c1cnc(NC2CCCC2)nc1C1(c2ccc(Cl)cc2)CCCC1 [Example 196, 5-pyrimidinecarboxamide, 4-[1-(4-chlorophenyl)cyclopentyl]-2-(cyclopentylamino)-N-[[3-fluoro-5-(trifluoromethyl)phenyl]methyl]-], which EC50 is on record?
Its EC50 is 91 nM.

How did the EC50 turn out when CCC(C)Nc1ncc(C(=O)N(CC)C2CCCCC2)c(C2(c3ccc(Cl)cc3)CCCC2)n1 (stereo not drawn) [Example 143, 5-pyrimidinecarboxamide, 4-[1-(4-chlorophenyl)cyclopentyl]-N-cyclohexyl-N-ethyl-2-[(1-methylpropyl)amino]-] was run?
Its EC50 is 880 nM.

Same assay, conditions: hQ23 cells, thallium flux assay

With CC1CCN(c2ncc(C(=O)NCc3ccc4c(c3)OCO4)c(C3(c4ccc(F)cc4)CCCC3)n2)CC1 [Example 237, 5-pyrimidinecarboxamide, N-(1,3-benzodioxol-5-ylmethyl)-4-[1-(4-fluorophenyl)cyclopentyl]-2-(4-methyl-1-piperidinyl)-] as the molecule, how does the EC50 read?
The EC50 was 540 nM.

With O=C(NCc1cc(F)cc(C(F)(F)F)c1)c1cnc(N2CCCC2)nc1C1(c2ccc(F)cc2)CCCC1 [Example 275, 5-pyrimidinecarboxamide, 4-[1-(4-fluorophenyl)cyclopentyl]-N-[[3-fluoro-5-(trifluoromethyl)phenyl]methyl]-2-(1-pyrrolidinyl)-] as the molecule, how does the EC50 read?
The EC50 was 24 nM.

For CN1CCN(c2ncc(C(=O)NCc3cc(F)cc(C(F)(F)F)c3)c(C3(c4ccc(F)cc4)CCCC3)n2)CC1 [Example 276, 5-pyrimidinecarboxamide, 4-[1-(4-fluorophenyl)cyclopentyl]-N-[[3-fluoro-5-(trifluoromethyl)phenyl]methyl]-2-(4-methyl-1-piperazinyl)-], which EC50 is on record?
The EC50 was 327 nM.
